# Source: US7893025B2, “Use of growth hormone releasing factor analogs in treating patients suffering from wasting” (Theratechnolgies Inc., priority 2003, dated 2011)
# Test: Adverse events and safety laboratory parameters; discontinuations
# Format: in vivo, human
# Details: 2 mg group, following 1 month of treatment
# Description: The results presented herein were obtained from a multicentre, randomized, double-blind, placebo-controlled study. The compound TH9507 was administered by subcutaneous injection daily (1 or 2 mg dose) for a three-month period. Patients were of both genders, aged 50 years or older, with stable COPD as per the 1995 American Thoracic Society criteria.
# Adverse events and safety laboratory parameters (haematology, biochemistry, urinalysis) were measured using standard laboratory methods.
smiles,measurement,value
"CC/C=C/CC(=O)N[C@@H](Cc1ccc(O)cc1)C(=O)N[C@@H](C)C(=O)N[C@@H](CC(=O)O)C(=O)N[C@@H](C)C(=O)N[C@H](C(=O)N[C@@H](Cc1ccccc1)C(=O)N[C@H](C(=O)N[C@@H](CC(N)=O)C(=O)N[C@@H](CO)C(=O)N[C@@H](Cc1ccc(O)cc1)C(=O)N[C@@H](CCCNC(=N)N)C(=O)N[C@@H](CCCCN)C(=O)N[C@H](C(=O)N[C@@H](CC(C)C)C(=O)NCC(=O)N[C@@H](CCC(N)=O)C(=O)N[C@@H](CC(C)C)C(=O)N[C@@H](CO)C(=O)N[C@@H](C)C(=O)N[C@@H](CCCNC(=N)N)C(=O)N[C@@H](CCCCN)C(=O)N[C@@H](CC(C)C)C(=O)N[C@@H](CC(C)C)C(=O)N[C@@H](CCC(N)=O)C(=O)N[C@@H](CC(=O)O)C(=O)N[C@H](C(=O)N[C@@H](CCSC)C(=O)N[C@@H](CO)C(=O)N[C@@H](CCCNC(=N)N)C(=O)N[C@@H](CCC(N)=O)C(=O)N[C@@H](CCC(N)=O)C(=O)NCC(=O)N[C@@H](CCC(=O)O)C(=O)N[C@@H](CO)C(=O)N[C@@H](CC(N)=O)C(=O)N[C@@H](CCC(N)=O)C(=O)N[C@@H](CCC(=O)O)C(=O)N[C@@H](CCCNC(=N)N)C(=O)NCC(=O)N[C@@H](C)C(=O)N[C@@H](CCCNC(=N)N)C(=O)N[C@@H](C)C(=O)N[C@@H](CCCNC(=N)N)C(=O)N[C@@H](CC(C)C)C(N)=O)[C@@H](C)CC)C(C)C)[C@@H](C)O)[C@@H](C)CC [TH9507, (hexenoyl trans-3)hGRF(1-44)NH2]",Discontinuation possibly related to study drug,one patient in the 2 mg group who showed elevated creatine phosphokinase (CPK) and serum glutamic oxaloacetic transaminase (SGOT) values
